These results are taken from US9765087B2, “Benzimidazole derivatives” (ENANTA PHARMACEUTICALS, INC., priority 2009, dated 2017).

Molecules are shown by their SMILES.

The test system of one experiment is HCV 1a genotype replicon. In words: HCV replicon assay (qRT-PCR or luciferase), genotype 1a. Conditions: Hepatitis C virus, Table 12, numeric values, read-out: 1a EC50. It counts as cell-based. Here is the method: HCV replicon cell lines (kindly provided by R. Bartenschlager) isolated from colonies as described by Lohman et. al. (Lohman et al. (1999) Science 285: 110-113, expressly incorporated by reference in its entirety) and used for all experiments. The HCV replicon has the nucleic acid sequence set forth in EMBL Accession No.: AJ242651, the coding sequence of which is from nucleotides 1801 to 8406.
These cell lines were maintained at 37° C., 5% CO2, 100% relative humidity in DMEM (Cat#11965-084, Invitrogen), with 10% fetal calf serum (“FCS”, Invitrogen), 1% non-essential amino acids (Invitrogen), 1% of Glutamax (Invitrogen), 1% of 100× penicillin/streptomycin (Cat#15140-122, Invitrogen) and Geneticin (Cat#10131-027, Invitrogen) at 0.75 mg/ml or 0.5 mg/ml for 11-7 and Huh-luc/neo-ET cells, respectively.
EC50 values of single agent compounds and combinations were determined by HCV RNA detection using quantitative RT-PCR, according to the manufacturer's instructions, with a TAQMAN® One-Step RT-PCR Master Mix Reagents Kit (Cat#AB 4309169, Applied Biosystems) on an ABI Model 7500 thermocycler. The TaqMan primers used for detecting and quantifying HCV RNA were obtained from Integrated DNA Technologies. HCV RNA was normalized to GAPDH RNA levels in drug-treated cells, which is detected and quantified using the Human GAPDH Endogenous Control Mix (Applied Biosystems, AB 4310884E). Total cellular RNA is purified from 96-well plates using the RNAqueous 96 kit (Ambion, Cat# AM1812). Chemical agent cytotoxicity is evaluated using an MTS assay according to the manufacturer's directions (Promega).
Since clinical drug resistance often develops in viral infections following single agent therapies, there is a need to assess the additive, antagonistic, or synergistic properties of combination therapies. We used the HCV replicon system to assess the potential use of the compound of the present invention or in combination therapies with Interferon alpha, cyclosporine analogs and inhibitors targeting other HCV proteins. The acute effects of a single or combinations of drugs are studied in the “Huh-luc/neo-ET” replicon with each chemical agent titrated in an X or Y direction in a 6 point two-fold dilution curve centered around the EC50 of each drug. Briefly, replicon cells are seeded at 7,000 cells per well in 90 ul DMEM (without phenol red, Invitrogen Cat.#31053-036) per well with 10% FCS, 1% non-essential amino acids, 1% of Glutamax and 1% of 100× penicillin/streptomycin and incubated overnight at 37° C., 5% CO2, 100% relative humidity. 16-20 h after seeding cells, test compounds previously solubilized and titrated in dimethyl sulfoxide (“DMSO”) from each X plate and Y plate are diluted 1:100 in DMEM (without phenol red, Invitrogen Cat.#31053-036) with 10% FCS, 1% non-essential amino acids, 1% of Glutamax and 1% of 100× penicillin/streptomycin and added directly to the 96-well plate containing cells and growth medium at a 1:10 dilution for a final dilution of compound and DMSO of 1:1000 ([…] final concentration). Drug treated cells are incubated at 37° C., 5% CO2, 100% relative humidity for 72 hours before performing a luciferase assay using 100 ul per well BriteLite Plus (Perkin Elmer) according to the manufacturer's instructions. Data analysis utilizes the method published by Prichard and Shipman (Antiviral Research, 1990. 14:181-205). Using this method, the combination data are analyzed for antagonistic, additive, or synergistic combination effects across the entire combination surface created by the diluted compounds in combination.
The compounds of the present invention can be effective against the HCV 1b genotype. It should also be understood that the compounds of the present invention can inhibit multiple genotypes of HCV. In one embodiment compound of the present invention are active against the 1a, 1b, 2a, 2b, 3a, 4a, and 5a genotypes. […] EC50 ranges against HCV 1b and 1a are as follows: A>10 nM; B1-10 nM; C<1 nM.
Background: Replicon systems follow genome replication, usually without infectious particles.
By EC50 is commonly meant the concentration at which the effect is half-maximal. For `COC(=O)N[C@H](C(=O)N1CC2(CC2)C[C@H]1c1ncc(-c2ccc(C#Cc3ccc4nc([C@@H]5CC6(CC6)CN5C(=O)[C@@H](NC(=O)OC)C5CCOCC5)[nH]c4c3)cc2)[nH]1)C(C)C` [Example 590], the EC50 amounted to 0.017 nM.

The experiment is the same for the next values; noted with them: Hepatitis C virus, Table 12, range class, read-out: 1a EC50 Range.
On to `COC(=O)N[C@H](C(=O)N1CC2(CC2)C[C@H]1c1nc2ccc(C#Cc3ccc(-c4cnc([C@@H]5CCCN5C(=O)[C@@H](NC(=O)OC)[C@@H](C)c5ccccc5)[nH]4)cc3)cc2[nH]1)C(C)C` (stereo in doubt) [Example 672], for which the EC50 is under 1 nM. As for `COC(=O)N[C@H](C(=O)N1CC2(CC2)C[C@H]1c1nc2ccc(C#Cc3ccc(-c4cnc([C@@H]5CCCN5C(=O)[C@H](NC(=O)OC)c5cc(F)cc(F)c5)[nH]4)cc3)cc2[nH]1)C(C)C` (stereo in doubt) [Example 678], the 50% effective concentration (EC50) was under 1 nM. Consider `COC(=O)N[C@H](C(=O)N1CC2(CC2)C[C@H]1c1nc2ccc(C#Cc3ccc(-c4cnc([C@@H]5CCCN5C(=O)OC(C)(C)C)[nH]4)cc3)cc2[nH]1)C(C)C` [Compound 666], for which the EC50 was over 10 nM. Still for that read-out and setting: the value for `COC(=O)N[C@@H](CNC(N)=O)C(=O)N1CCC[C@H]1c1ncc(-c2ccc(C#Cc3ccc4nc([C@@H]5CC6(CC6)CN5C(=O)[C@@H](NC(=O)OC)C(C)C)[nH]c4c3)cc2)[nH]1` [Example 550] was 1 to 10 nM; that for `COC(=O)N[C@@H](CCNC(N)=O)C(=O)N1CCC[C@H]1c1nc(-c2ccc(C#Cc3ccc4[nH]c([C@@H]5CC6(CC6)CN5C(=O)[C@@H](NC(=O)OC)C(C)C)nc4c3)cc2)c[nH]1` [Example 553] was 1 to 10 nM.

`COC(=O)N[C@H](C(=O)N1CC2(CC2)C[C@H]1c1ncc(-c2ccc(C#Cc3ccc4nc([C@@H]5CC6(CC6)CN5C(=O)[C@@H](N)C(C)C)[nH]c4c3)cc2)[nH]1)C(C)C` [Example 556]: the EC50 was over 10 nM.

For the molecule `COC(=O)N[C@H](C(=O)N1CCC[C@H]1c1nc(-c2ccc(C#Cc3ccc4[nH]c([C@@H]5C[C@]6(CCCO6)CN5C(=O)[C@@H](NC(=O)OC)C(C)C)nc4c3)cc2)c[nH]1)C(C)C` [Example 557], the EC50 lay in the range of 1 to 10 nM. `COC(=O)N[C@H](C(=O)N1C[C@@H](CF)C[C@H]1c1ncc(-c2ccc(C#Cc3ccc4nc([C@@H]5C[C@@]6(CCCO6)CN5C(=O)[C@@H](NC(=O)OC)C(C)C)[nH]c4c3)cc2)[nH]1)C(C)C` [Example 566]: the EC50 is under 1 nM. Still for that read-out and setting: the value for `COC(=O)N[C@H](C(=O)N1CCC[C@H]1c1ncc(-c2ccc(C#Cc3ccc4nc([C@@H]5C[C@@H](C6CC6)CN5C(=O)[C@@H](NC(=O)OC)C(C)C)[nH]c4c3)cc2)[nH]1)C(C)C` [Example 572] was under 1 nM. `CC(C)[C@H](NC(=O)OC1CCC1)C(=O)N1CC2(CC2)C[C@H]1c1ncc(-c2ccc(C#Cc3ccc4nc([C@@H]5CC6(CC6)CN5C(=O)[C@@H](NC(=O)OC5CCC5)C(C)C)[nH]c4c3)cc2)[nH]1` [Example 576]: the concentration for a half-maximal effect (EC50) was over 10 nM. On to `COC(=O)N[C@H](C(=O)N1CC2(CC2)C[C@H]1c1ncc(-c2ccc(C#Cc3ccc4nc([C@@H]5CC6(CC6)CN5C(=O)[C@H](NC(=O)OC)c5ccsc5)[nH]c4c3)cc2)[nH]1)C(C)C` [Example 581], for which the half-maximal effective concentration (EC50) was under 1 nM. On to `COC(=O)N[C@H](C(=O)N1CC2(CC2)C[C@H]1c1ncc(-c2ccc(C#Cc3ccc4nc([C@@H]5CC6(CC6)CN5C(=O)[C@H](NC(=O)OC)c5cccs5)[nH]c4c3)cc2)[nH]1)C(C)C` [Example 582], for which the EC50 is under 1 nM. For `COC(=O)N[C@H](C(=O)N1CC2(CC2)C[C@H]1c1ncc(-c2ccc(C#Cc3ccc4nc([C@@H]5CC6(CC6)CN5C(=O)[C@H](NC(=O)OC)c5cccc(Cl)c5)[nH]c4c3)cc2)[nH]1)C(C)C` [Example 584], the 50% effective concentration (EC50) is under 1 nM. The same measure, in the same setting: with `COC(=O)N[C@H](C(=O)N1CC2(CC2)C[C@H]1c1ncc(-c2ccc(C#Cc3ccc4nc([C@@H]5CC6(CC6)CN5C(=O)[C@H](NC(=O)OC)c5ccc(OC)cc5)[nH]c4c3)cc2)[nH]1)C(C)C` [Example 585] the figure was 1 to 10 nM. Same read-out and setting: the value for `COC(=O)N[C@H](C(=O)N1CC2(CC2)C[C@H]1c1ncc(-c2ccc(C#Cc3ccc4nc([C@@H]5C[C@H]6C[C@H]6N5C(=O)[C@H](NC(=O)OC)c5ccccc5)[nH]c4c3)cc2)[nH]1)C(C)C` [Example 586] was under 1 nM; that for `CC[C@H](C)[C@H](NC(=O)OC)C(=O)N1CC2(CC2)C[C@H]1c1nc2ccc(C#Cc3ccc(-c4cnc([C@@H]5CC6(CC6)CN5C(=O)[C@@H](NC(=O)OC)C(C)C)[nH]4)cc3)cc2[nH]1` [Example 587] was under 1 nM. Turning to `COC(=O)N[C@H](C(=O)N1CC2(CC2)C[C@H]1c1nc(-c2ccc(C#Cc3ccc4[nH]c([C@@H]5CC6(CC6)CN5C(=O)[C@@H](NC(=O)OC)C(C)C)nc4c3)cc2)c(Cl)[nH]1)C(C)C` [Example 588], the EC50 is under 1 nM. Still for that read-out and setting: the value for `COC(=O)N[C@H](C(=O)N1CC2(CC2)C[C@H]1c1ncc(-c2ccc(C#Cc3ccc4nc([C@@H]5CC6(CC6)CN5C(=O)[C@@H](NC(=O)OC)[C@@H](C)OC)[nH]c4c3)cc2)[nH]1)C(C)C` [Example 589] was under 1 nM; that for `COC(=O)N[C@H](C(=O)N1CC2(CC2)C[C@H]1c1nc(-c2ccc(C#Cc3ccc4[nH]c([C@@H]5CC6(CC6)CN5C(=O)[C@@H](NC(=O)OC)C(C)C)nc4c3)cc2)c(C2CC2)[nH]1)C(C)C` [Example 591] was under 1 nM; that for `COC(=O)N[C@H](C(=O)N1CC2(CC2)C[C@H]1c1nc2ccc(C#Cc3ccc(-c4cnc([C@@H]5CC6(CC6)CN5C(=O)[C@@H](NC(=O)OC)C(C)C)[nH]4)cc3)cc2[nH]1)c1ccccc1` [Example 592] was under 1 nM.

Take `COC(=O)N[C@H](C(=O)N1CC2(CC2)C[C@H]1c1nc(-c2ccc(C#Cc3ccc4[nH]c([C@@H]5CC6(CC6)CN5C(=O)[C@@H](NC(=O)OC)C(C)C)nc4c3)cc2)c(-c2ccncc2)[nH]1)C(C)C` [Example 593]: the EC50 is under 1 nM. With `COC(=O)N[C@H](C(=O)N1CC2(CC2)C[C@H]1c1nc2ccc(C#Cc3ccc(-c4cnc([C@@H]5CCCN5C(=O)[C@H](NC(=O)OC)c5ccccc5F)[nH]4)cc3)cc2[nH]1)C(C)C` [Example 594], the half-maximal effective concentration (EC50) was under 1 nM. With `COC(=O)N[C@H](C(=O)N1CCC[C@H]1c1ncc(-c2ccc(C#Cc3ccc4nc([C@@H]5CC6(CC6)CN5C(=O)[C@@H](NC(=O)OC)C(C)C)[nH]c4c3)cc2)[nH]1)c1ccccc1` [Example 595], the EC50 was under 1 nM.

A further experiment relates to HCV 1b genotype replicon. The experiment is described as follows: HCV replicon assay (qRT-PCR or luciferase), genotype 1b. It is filed as cell-based. The following applies: Hepatitis C virus, Table 12, numeric values, read-out: 1b EC50. In outline:
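Genotype 1b subgenomic replicon Huh-luc/neo-ET cells (7,000/well) treated with compound for 72 h at 37 °C, 0.2% DMSO final; replication read by firefly luciferase. EC50 alternatively from qRT-PCR of HCV RNA normalized to GAPDH; cytotoxicity by MTS.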
With `COC(=O)N[C@H](C(=O)N1CCC[C@H]1c1ncc(-c2ccc3cc(-c4ccc5nc([C@@H]6C[C@H](C7CC7)CN6C(=O)[C@@H](NC(=O)OC)C(C)C)[nH]c5c4)ccc3c2)[nH]1)C(C)C` [Example 642], the EC50 came out at 0.007 nM.

In the case of `COC(=O)N[C@H](C(=O)N1CC2(CC2)C[C@H]1c1ncc(-c2ccc(C#Cc3ccc4nc([C@@H]5CC6(CC6)CN5C(=O)OC(C)(C)C)[nH]c4c3)cc2)[nH]1)C(C)C` [Example 649], the concentration for a half-maximal effect (EC50) stood at 0.304 nM.

Still in this experiment, the particulars now being: Hepatitis C virus, Table 12, range class, read-out: 1b EC50 Range.
As for `COC(=O)N[C@H](C(=O)N1[C@@H]2C[C@@H]2C[C@H]1c1ncc(-c2ccc(C#Cc3ccc4nc([C@@H]5CC6(CC6)CN5C(=O)[C@H](NC(=O)OC)c5ccccc5)[nH]c4c3)cc2)[nH]1)C(C)C` [Example 648], the concentration giving a half-maximal response (EC50) was under 1 nM.
